Laboratory results as given in patent US20160266153A1, “I[…] PREGABALIN” (Randox Laboratories Limited, priority 2015, published 2016).
≈ marks a conversion by molar mass, not a printed value.

Assays:
[1] = system: antibody RS2845 (raised against Immunogen II); experiment: Competitive ELISA: HRP tracer (Tracer 1) versus pregabalin or potential cross-reactants for binding sites of polyclonal antibody RS2845; settings: for % Cross-Reactivity: % CR = IC50 pregabalin/IC50 CR x 100, cross-reactants assessed at 5 μg/ml, (S) pregabalin as calibrator; for IC50 (standard concentration which produces 50% B/B0): antibody RS2845 coated at 5 μg/ml, Tracer 1, (S) enantiomer of pregabalin as calibrator
Experimental: The antibody titre is evaluated by coating a microtitre plate (Thermo Fisher Scientific NUNC, 468667) with antibody (125 μl/well) in coating buffer (10 mM Tris pH 8.5) at 37° C. for 2 hours. The plate is then washed 4 times over 10 minutes with working strength mixture of Tris-Buffered Saline and Tween 20 (TBST). 50 μl of sample/standard (pregabalin) is added to the appropriate wells in triplicate, followed by 75 μl of hapten-HRP conjugate and incubated at 25° C. for 1 hour. The plate is then washed and 125 μl of TMB (Randox Laboratories, 4380-15) added to each well and left at room temperature for 20 mins in the dark. The reaction is stopped using 125 μl of 0.2 M sulphuric acid. The absorbances are read at 450 nm with an ELISA microplate reader (BIO-TEK Instruments, Elx800) and the means calculated. Antibody sensitivity can then be determined.
IgG was extracted from serum from the immunized animal the using ammonium sulphate/caprylic acid precipitation and the purified antibody was immobilised on a 96 well ELISA plate at 5 μg/ml in 10 mM TRIS buffer, pH 8.5 overnight at 4° C. The assay was based on competition for binding sites of a polyclonal antibody between HRP tracer and pregabalin or potential cross-reactants. The plate was washed (×3) with TBST and the calibrator (pregabalin) or potential cross reactants added (50 μl per well), followed by HRP tracer (75 μl/well) to the appropriate wells. The plates were then incubated for 60 minutes at 25° C. They were then subjected to 2 quick wash cycles using TBST, followed by 4×2 minute wash cycles. 125 μL of signal 25 (TMB) was then added to each well for 20 mins at room temperature in the dark. The reaction was stopped by the addition of 125 μl of 0.2 M Sulphuric Acid per well and the plates read immediately at 450 nm. Calibration curves were generated and these were used to determine the sensitivity and specificity of the immunoassay for pregabalin and potential cross-reactants. The data was inputted to a computer program called ‘KC Junior’ (Biotek). […] This program is used to calculate the IC50 values by dividing the 0 ng/ml optical density (OD) value by 2 and obtaining the concentration value from the curve for this OD.
wherein % CR is the percentage cross-reactivity, IC50 pregabalin is the concentration of pregabalin which causes 50% displacement of signal and IC50 CR is the concentration of potential cross-reactant that causes 50% displacement of signal.
The antibody (RS2845) used to generate the data in the tables below was raised from Immunogen II (Example 9) and the HRP tracer was prepared as in Example 10 (Tracer 1).

[2] = in vivo; cited from earlier work

| Compound | % Cross-Reactivity [1] | other results |
| --- | --- | --- |
| CCC(C)CC(C)N (centres unmarked) [1,3-dimethylamylamine (DMAA), 1,3-dimethylamylamine] | 2.2% | – |
| NC(=O)N1c2ccccc2C=Cc2ccccc21 [Carbamazepine] | <1% | – |
| N[C@H](CCC(=O)O)C(=O)O [D-Glutamic Acid] | <1% | – |
| NC(=O)OCC(COC(N)=O)c1ccccc1 [Felbamate] | <1% | – |
| NCC1(CC(=O)O)CCCCC1 [Gabapentin] | <1% | – |
| NCCCC(=O)O [Gamma-aminobutyric acid] | <1% | – |
| N[C@@H](CCC(=O)O)C(=O)O [L-Glutamic Acid] | <1% | – |
| COC[C@@H](NC(C)=O)C(=O)NCc1ccccc1 [Lacosamide] | <1% | – |
| CC[C@@H](C(N)=O)N1CCCC1=O [Levetiracetam] | <1% | – |
| CNC[C@H](CC(=O)O)CC(C)C [N-methylpregabalin, N-methyl pregabalin] | <1% | – |
| CC(C)CC(CN)CC(=O)O (centres unmarked) [Pregabalin, 3-(aminomethyl)-5-methylhexanoic acid] | 100% | IC50 (standard concentration which produces 50% B/B0) [1]: 0.266 ng/mL (≈ 1.67 nM); IC50 (standard concentration which produces 50% B/B0) ([1]; listed as pregabalin): about 0.266 ng/ml; B/B0 ([1]; pregabalin 0.02 ng/ml): 76%; B/B0 ([1]; pregabalin 0.08 ng/ml): 52%; B/B0 ([1]; pregabalin 0.31 ng/ml): 28%; B/B0 ([1]; pregabalin 1.25 ng/ml): 14%; B/B0 ([1]; pregabalin 5.00 ng/ml): 7%; Dose excreted unchanged in the urine [2]: about 98%; Metabolism [2]: negligible metabolism |
| NCCc1c[nH]c2ccc(O)cc12 [Serotonin] | <1% | – |
| CC(C)(C)C(O)/C=C/c1ccc2c(c1)OCO2 (centres unmarked) [Stiripentol] | <1% | – |
| Cc1ccsc1C(=CCCN1CCC[C@@H](C(=O)O)C1)c1sccc1C [Tiagabine] | <1% | – |
| CC1(C)O[C@@H]2[C@@H](CO[C@@]3(COS(N)(=O)=O)OC(C)(C)O[C@@H]23)O1 [Topiramate] | <1% | – |
| CCCC(CCC)C(=O)O [Valproic acid] | <1% | – |
| C=CC(N)CCC(=O)O (centres unmarked) [Vigabatrin] | <1% | – |
